Data reported in BigSolDB 2.1.

OC[C@H]1O[C@H](O[C@H]2O[C@H](CO)[C@@H](O)[C@H](O)[C@H]2O)[C@H](O)[C@@H](O)[C@@H]1O
solubility (mole fraction)
Settings | 288.15 K | 293.15 K | 298.15 K | 303.15 K | 308.15 K | 313.15 K | 318.15 K
in ethanol | 0.000652 | 0.000701 | 0.000778 | 0.000852 | 0.000905 | 0.000989 | 0.00108
in water | 0.0344 | 0.0381 | 0.0437 | 0.0545 | 0.0636 | 0.0683 | 0.114
